Like-named read-outs stand apart in the source and are kept apart here.
Target: T1, SIRT1 (Homo sapiens, UniProt Q96EB6)
T1 sequence (Q96EB6 1-747): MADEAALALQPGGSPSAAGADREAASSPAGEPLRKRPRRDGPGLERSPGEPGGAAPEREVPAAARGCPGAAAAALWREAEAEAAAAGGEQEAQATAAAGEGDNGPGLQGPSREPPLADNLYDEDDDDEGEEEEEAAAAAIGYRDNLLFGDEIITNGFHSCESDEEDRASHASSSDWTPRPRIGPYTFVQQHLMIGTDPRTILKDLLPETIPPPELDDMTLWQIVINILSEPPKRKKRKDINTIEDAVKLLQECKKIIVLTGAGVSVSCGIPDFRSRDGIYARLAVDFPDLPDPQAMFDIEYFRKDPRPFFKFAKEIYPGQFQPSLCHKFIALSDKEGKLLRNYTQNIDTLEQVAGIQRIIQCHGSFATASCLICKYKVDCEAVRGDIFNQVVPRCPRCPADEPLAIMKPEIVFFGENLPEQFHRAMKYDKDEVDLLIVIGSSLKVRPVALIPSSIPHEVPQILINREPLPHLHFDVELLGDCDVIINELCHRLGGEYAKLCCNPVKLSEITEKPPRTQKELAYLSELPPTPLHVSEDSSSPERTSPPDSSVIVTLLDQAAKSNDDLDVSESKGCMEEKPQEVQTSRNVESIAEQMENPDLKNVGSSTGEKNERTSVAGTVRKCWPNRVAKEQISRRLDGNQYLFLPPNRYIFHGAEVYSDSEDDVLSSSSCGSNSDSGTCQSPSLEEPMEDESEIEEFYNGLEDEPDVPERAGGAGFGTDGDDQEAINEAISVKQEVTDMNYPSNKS
Experiment: Trp mass spectrometry assay (SIRT1 activation)
Type: biochemical
Settings: for Emax: percent maximum fold activation of SIRT1, read-out: Tryp % Fold Act
Method in brief: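 N-His-tagged SIRT1 (10 nM), expressed in E. coli, was incubated with 0.5 μM Ac-RHKK(Ac)W-NH2 peptide and 120 μM NAD+ for 25 min at 25 °C in HEPES pH 7.5 with […]. The reaction was stopped with formic acid and O-acetyl-ADP-ribose or deacetylated peptide was quantified by mass spectrometry. Results are given as EC1.5 and percent maximal activation relative to DMSO control.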

[1] = concentration of test compound that results in 150% activation of SIRT1, Trp peptide substrate
[2] = Trp mass spectrometry assay, EC1.5 = concentration giving 150% activation of SIRT1
[3] = Trp mass spectrometry assay, EC1.5 = concentration of test compound that results in 150% activation of SIRT1

Tryp AVG EC1.5 (μM) [1] | Emax (Trp peptide substrate) [%] | Tryp AVG EC1.5 (μM) [2] | Emax (Trp mass spectrometry assay) [%] | Tryp AVG EC1.5 (μM) [3] | Compound
B (EC1.5 1-25 μM) | ≥ 150 | – | – | – | O=C(Nc1ccncn1)N1c2nc(-c3cccc(N4CCOCC4)c3)ccc2N2CCC[C@H]1C2 [Example 529]
A (EC1.5<1 μM) | ≥ 150 | – | – | – | O=C(Nc1ccccn1)N1c2nc(-c3ccc(F)c(Cl)c3)ccc2N2CC[C@H]1C2 [Example 329]
– | – | A (EC1.5<1 μM) | ≥ 150 | – | O=C(Nc1cccc(-c2ccccc2)c1)N1c2nc(-c3cccc(C(F)(F)F)c3)ccc2N2CC[C@H]1C2 [Example 625]
– | – | A (EC1.5<1 μM) | ≥ 150 | – | O=C(Nc1cccc(-c2cnco2)c1)N1c2nc(-c3cccc(Cl)c3)ccc2N2C[C@@H](O)[C@H]1C2 [Example 683]
A (EC1.5<1 μM) | ≥ 150 | – | – | – | Cc1cc(-c2ccc3c(n2)N(C(=O)Nc2ccc4c(cnn4C)c2)[C@H]2CCN3C2)ccn1 [Example 502]
– | – | B (EC1.5 1-25 μM) | ≥ 150 | – | O=C(Nc1ccccn1)N1c2nc(-c3cccc(Cl)c3)ccc2N2C[C@@H](O)[C@H]1C2 [Example 675]
– | – | – | ≥ 150 | B (EC1.5 1-25 μM) | Cc1nn(C)cc1NC(=O)N1c2nc(-c3cccc(C(F)(F)F)c3)ccc2N2CC[C@H]1C2 [Example 92]
– | – | B (EC1.5 1-25 μM) | ≥ 150 | – | O=C(Nc1cncc(F)c1)N1c2nc(-c3cncc(C(F)(F)F)c3)ccc2N2C[C@@H](O)[C@H]1C2 [Example 691]
– | – | – | ≥ 150 | B (EC1.5 1-25 μM) | O=C(Nc1ccc(F)cn1)N1c2nc(-c3cccc(Cl)c3)ccc2N2CC[C@@H]1C2 [Example 204]
B (EC1.5 1-25 μM) | < 150 | – | – | – | O=C(CCCCCNC(=O)c1ccc(-c2c3ccc(=O)cc-3oc3cc(O)ccc23)c(C(=O)O)c1)NCc1ccc(NC(=O)N2c3nc(-c4cccc(C(F)(F)F)c4)ccc3N3CCC[C@H]2C3)cc1 [546 (3)]
– | – | A (EC1.5<1 μM) | ≥ 150 | – | C#CCOc1cccc(NC(=O)N2c3nc(-c4cccc(C5(C(F)(F)F)N=N5)c4)ccc3N3CC[C@H]2C3)c1 [Example 797]
– | – | – | ≥ 150 | – | Cc1cc(OCC(O)CO)nc(NC(=O)N2c3nc(-c4cccc(Cl)c4)ccc3N3CC[C@H]2C3)n1 (stereo partly shown) [Example 55]
A (EC1.5<1 μM) | ≥ 150 | – | – | – | N#Cc1cc(-c2ccc3c(n2)N(C(=O)Nc2ccccn2)[C@H]2CCN3C2)ccc1F [Example 341]
B (EC1.5 1-25 μM) | ≥ 150 | – | – | – | Cc1n[nH]c(C)c1-c1ccc2c(n1)N(C(=O)Nc1cccnc1)[C@H]1CCN2C1 [Example 525]
– | – | – | ≥ 150 | – | O=C(Nc1cc(OCC(O)CO)ccn1)N1c2nc(-c3cccc(C(F)(F)F)c3)ccc2N2CC[C@H]1C2 (stereo partly shown) [Example 53]
– | – | – | ≥ 150 | B (EC1.5 1-25 μM) | O=C(Nc1ccncc1)N1c2nc(-c3cccc(C(F)(F)F)c3)ccc2N2CCC[C@@H]1C2 [Example 195]
– | – | – | ≥ 150 | – | O=C(Nc1ccc(F)cn1)N1c2nc(-c3cccc(Cl)c3)ccc2N2CC[C@H]1C2 [Example 43]
A (EC1.5<1 μM) | ≥ 150 | – | – | – | O=C(Nc1ccccn1)N1c2nc(-c3cncc(F)c3)ccc2N2CCC[C@H]1C2 [Example 470]
A (EC1.5<1 μM) | ≥ 150 | – | – | – | Cc1cc(NC(=O)N2c3nc(-c4cccc(C(F)(F)F)c4)ccc3N3CC[C@H]2C3)cc(Br)n1 [Example 540]
– | – | – | < 150 | C (EC1.5>25 μM) | CN(C(=O)N1c2nc(-c3cccc(C(F)(F)F)c3)ccc2N2CC[C@H]1C2)c1ccccn1 [Example 200]
– | – | – | ≥ 150 | A (EC1.5<1 μM) | O=C(Nc1ccc(F)cn1)N1c2nc(-c3ccnc(C(F)(F)F)c3)ccc2N2CC[C@H]1C2 [Example 128]
B (EC1.5 1-25 μM) | ≥ 150 | – | – | – | CN(C)c1ccc(-c2ccc3c(n2)N(C(=O)Nc2ccccn2)[C@H]2CCN3C2)cn1 [Example 345]
B (EC1.5 1-25 μM) | ≥ 150 | – | – | – | Cc1nc(NC(=O)N2c3nc(-c4cncc(Cl)c4)ccc3N3CCC2CC3)sc1C [Example 554]

Tryp AVG EC1.5 (μM) [1] | Emax (Trp peptide substrate) [%] | Tryp AVG EC1.5 (μM) [2] | Emax (Trp mass spectrometry assay) [%] | Tryp AVG EC1.5 (μM) [3] | Compound
– | – | – | ≥ 150 | B (EC1.5 1-25 μM) | Cc1cc(C(F)(F)F)nc(NC(=O)N2c3nc(-c4cccc(C(F)(F)F)c4)ccc3N3CC[C@H]2C3)n1 [Example 94]
– | – | – | ≥ 150 | – | Cn1ccc(NC(=O)N2c3nc(-c4cccc(C(F)(F)F)c4)ccc3N3CCC[C@H]2C3)n1 [Example 36]
– | – | B (EC1.5 1-25 μM) | ≥ 150 | – | O=C(Nc1cccnc1)N1c2nc(-c3cncc(C(F)(F)F)c3)ccc2N2C[C@@H](O)[C@H]1C2 [Example 705]
– | – | A (EC1.5<1 μM) | ≥ 150 | – | CN1CCN(c2ccnc(NC(=O)N3c4nc(-c5cccc(C(F)(F)F)c5)ccc4N4CC[C@H]3C4)n2)CC1 [Example 742]
– | – | A (EC1.5<1 μM) | ≥ 150 | – | O=C(Nc1cccc(-c2cnco2)n1)N1c2nc(-c3cccc(Cl)c3)ccc2N2C[C@@H](O)[C@H]1C2 [Example 693]
– | – | A (EC1.5<1 μM) | ≥ 150 | – | O=C(Nc1nncs1)N1c2nc(-c3cccc(C(F)(F)F)c3)ccc2N2CC[C@H]1C2 [Example 646]
– | – | A (EC1.5<1 μM) | – | – | CC(C)(C)OC(=O)NCCCc1cc(NC(=O)N2c3nc(-c4cccc(C(F)(F)F)c4)ccc3N3CCC[C@H]2C3)cc(-c2cnco2)c1 [Example 754]
– | – | A (EC1.5<1 μM) | ≥ 150 | – | NCCCCCC(=O)NCc1cccc(NC(=O)N2c3nc(-c4cccc(C(F)(F)F)c4)ccc3N3CC[C@H]2C3)c1 [Example 758]
A (EC1.5<1 μM) | ≥ 150 | – | – | – | O=C(CCCC[C@@H]1SCC2NC(=O)NC21)NCCCCCC(=O)NCc1ccc(NC(=O)N2c3nc(-c4cccc(C(F)(F)F)c4)ccc3N3CC[C@H]2C3)cc1 (stereo partly shown) [Example 428]
– | – | B (EC1.5 1-25 μM) | ≥ 150 | – | COc1cc(NC(=O)N2c3nc(-c4cccc(C(F)(F)F)c4)ccc3N3C[C@@H](O)[C@H]2C3)nc(OC)n1 [Example 664]
B (EC1.5 1-25 μM) | ≥ 150 | – | – | – | COc1cccc(-c2ccc3c(n2)N(C(=O)Nc2ccccn2)[C@@H]2CCN3C2)c1 [Example 219]
– | – | B (EC1.5 1-25 μM) | ≥ 150 | – | NCc1cccc(NC(=O)N2c3nc(-c4cccc(C(F)(F)F)c4)ccc3N3CC[C@H]2C3)c1 [Example 755]
– | – | – | ≥ 150 | B (EC1.5 1-25 μM) | N#Cc1cccc(-c2ccc3c(n2)N(C(=O)Nc2ccncc2F)[C@H]2CCN3C2)c1 [Example 147]
A (EC1.5<1 μM) | ≥ 150 | – | – | – | Cc1nc(NC(=O)N2c3nc(-c4cccc(N(C)C)c4)ccc3N3CCC[C@H]2C3)sc1C [Example 383]
– | – | B (EC1.5 1-25 μM) | ≥ 150 | – | CC(C)(C)OC(=O)NCCCc1cc(NC(=O)N2c3nc(-c4cccc(C(F)(F)F)c4)ccc3N3CC[C@H]2C3)cc(-c2cnco2)c1 [Example 759]
– | – | – | ≥ 150 | – | O=C(Nc1cncc(F)c1)N1c2nc(-c3cccc(C(F)(F)F)c3)ccc2N2CC[C@H]1C2 [Example 20]
B (EC1.5 1-25 μM) | ≥ 150 | – | – | – | COc1ccc(-c2ccc3c(n2)N(C(=O)Nc2ccccn2)[C@H]2CCN3C2)cn1 [Example 342]
A (EC1.5<1 μM) | ≥ 150 | – | – | – | O=C(Nc1ncccn1)N1c2nc(N3CCCC(C(F)(F)F)C3)ccc2N2CCC[C@H]1C2 (stereo partly shown) [Example 292]
B (EC1.5 1-25 μM) | ≥ 150 | – | – | – | O=C(Nc1cccc(-c2ccc(C(F)(F)F)cn2)c1)N1c2nc(-c3cccc(C(F)(F)F)c3)ccc2N2CC[C@H]1C2 [Example 618]
C (EC1.5>25 μM) | < 150 | – | – | – | CN(C)c1cccc(-c2ccc3c(n2)N(C(=O)Nc2ccc(F)cn2)[C@@H]2CCCN3C2)c1 [Example 253]
– | – | A (EC1.5<1 μM) | ≥ 150 | – | O=C(Nc1cccc(-c2cccnc2)n1)N1c2nc(-c3cccc(C(F)(F)F)c3)ccc2N2CC[C@H]1C2 [Example 655]
– | – | A (EC1.5<1 μM) | ≥ 150 | – | C#CCCCNc1nccc(NC(=O)N2c3nc(-c4cccc(C5(C(F)(F)F)N=N5)c4)ccc3N3CC[C@H]2C3)n1 [Example 798]
– | – | A (EC1.5<1 μM) | ≥ 150 | – | O=C(Nc1nnc(-c2ccccc2)o1)N1c2nc(-c3cccc(C(F)(F)F)c3)ccc2N2CC[C@H]1C2 [Example 719]

Compound | Tryp AVG EC1.5 (μM) [1] | Emax (Trp peptide substrate) [%] | Tryp AVG EC1.5 (μM) [2] | Emax (Trp mass spectrometry assay) [%] | Tryp AVG EC1.5 (μM) [3]
O=C(Nc1cccc(-c2cnco2)c1)N1c2nc(N3CCCC(C(F)(F)F)C3)ccc2N2CCC[C@H]1C2 (stereo partly shown) [Example 285] | A (EC1.5<1 μM) | ≥ 150 | – | – | –
